Laboratory results: ChEMBL document CHEMBL1122021, “Angiotensin-converting enzyme inhibitors: importance of the amide carbonyl of mercaptoacyl amino acids for hydrogen bonding to the enzyme” (J Med Chem, 1982)
pIC50: −log10 of the molar value.

Target: T1, Angiotensin-converting enzyme (Oryctolagus cuniculus, UniProt P12822)
T1 sequence (P12822 whole entry): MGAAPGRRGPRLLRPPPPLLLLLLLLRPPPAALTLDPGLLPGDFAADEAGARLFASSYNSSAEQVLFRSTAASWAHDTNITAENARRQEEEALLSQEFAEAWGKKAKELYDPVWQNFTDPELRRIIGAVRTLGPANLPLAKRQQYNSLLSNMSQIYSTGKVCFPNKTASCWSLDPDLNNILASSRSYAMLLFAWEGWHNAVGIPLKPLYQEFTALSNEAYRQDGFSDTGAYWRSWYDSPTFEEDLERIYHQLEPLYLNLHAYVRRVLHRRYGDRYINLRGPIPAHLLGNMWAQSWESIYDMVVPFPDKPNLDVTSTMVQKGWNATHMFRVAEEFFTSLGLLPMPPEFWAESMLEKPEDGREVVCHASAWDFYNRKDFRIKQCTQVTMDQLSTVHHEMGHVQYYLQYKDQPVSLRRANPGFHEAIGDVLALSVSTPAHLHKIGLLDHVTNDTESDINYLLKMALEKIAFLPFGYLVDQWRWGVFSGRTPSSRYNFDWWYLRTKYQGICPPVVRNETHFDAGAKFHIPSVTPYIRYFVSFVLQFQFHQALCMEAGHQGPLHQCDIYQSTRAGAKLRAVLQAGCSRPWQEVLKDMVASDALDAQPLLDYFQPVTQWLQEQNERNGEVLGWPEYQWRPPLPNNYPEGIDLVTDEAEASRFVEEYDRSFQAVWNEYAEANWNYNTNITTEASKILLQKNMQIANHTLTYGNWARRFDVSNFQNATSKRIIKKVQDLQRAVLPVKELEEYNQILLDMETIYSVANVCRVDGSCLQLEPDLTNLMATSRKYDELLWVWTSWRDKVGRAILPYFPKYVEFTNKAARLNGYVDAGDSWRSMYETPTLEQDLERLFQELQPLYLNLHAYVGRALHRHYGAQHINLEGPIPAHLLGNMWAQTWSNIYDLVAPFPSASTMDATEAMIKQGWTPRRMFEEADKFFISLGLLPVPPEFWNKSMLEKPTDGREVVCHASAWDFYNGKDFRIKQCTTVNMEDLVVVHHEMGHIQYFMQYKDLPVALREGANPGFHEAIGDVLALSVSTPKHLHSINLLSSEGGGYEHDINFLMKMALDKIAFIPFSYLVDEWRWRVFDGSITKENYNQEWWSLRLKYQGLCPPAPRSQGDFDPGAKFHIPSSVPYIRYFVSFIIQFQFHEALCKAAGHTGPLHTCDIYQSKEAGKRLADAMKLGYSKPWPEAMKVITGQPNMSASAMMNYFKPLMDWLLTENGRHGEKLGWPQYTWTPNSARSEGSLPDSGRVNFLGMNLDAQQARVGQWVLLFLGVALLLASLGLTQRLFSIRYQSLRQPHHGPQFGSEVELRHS
Assay: In vitro inhibitory activity against Angiotensin I converting enzyme in rabbit lung, using hippuryl-histidyl-leucine as substrate

| pIC50 (read-out: I50) | pIC50 | Compound |
| --- | --- | --- |
| 5.00 | – | O=C(O)CN1CCCC(CS)C1=O (stereo unspecified) |
| 3.24 | – | O=C(O)CC(=O)NCCS |
| 5.43 | – | C[C@@H](CS)C(=O)[C@@H]1CCCC[C@H]1C(=O)O |
| 5.52 | – | CN(CC(=O)O)C(=O)CCS |
| 6.15 | – | O=C(CCS)O[C@@H](Cc1ccccc1)C(=O)O |
| 6.89 | – | C[C@H](CS)C(=O)N1CCCC[C@H]1C(=O)O |
| 2.92 | – | O=C(O)CCC(O)CCS (stereo unspecified) |
| 6.34 | – | O=C(O)[C@@H]1CCCCN1C(=O)CCS |
| 4.47 | – | O=C(CCS)[C@H]1CC[C@H]1C(=O)O |
| 6.13 | – | C[C@H](CS)C(=O)[C@@H]1CCCC[C@H]1C(=O)O |

The next lines start with the molecule.

| Compound | pIC50 (read-out: I50) | pIC50 |
| --- | --- | --- |
| O=C(O)[C@@H]1CCCN1C(=O)CCS | 6.60 | – |
| O=C(O)[C@@H]1CCCN1CCCS | 3.62 | – |
| C[C@H](CS)C(=O)N1C(=O)CC[C@H]1C(=O)O | – | 8.05 |
| O=C(CCS)N[C@@H](Cc1ccccc1)C(=O)O | 6.07 | – |
| O=C(O)[C@@H]1CC[C@H]1C(=O)CCS | 4.43 | – |
| O=C(O)[C@@H]1CCCC[C@H]1C(=O)CCS | 5.77 | – |
| O=C(O)C/C=C/CCS | 3.14 | – |
| O=C(O)[C@@H]1CCC(=O)N1CCCS | 3.19 | – |
| O=C(O)CNC(=O)CCS | 5.55 | – |
| O=C(O)CCCCCS | 2.96 | – |
| CN(C(=O)CCS)[C@@H](Cc1ccccc1)C(=O)O | – | 4.51 |
| O=C(O)CCC(=O)CCS | 4.96 | – |
| O=C(O)[C@@H]1CCCN1S(=O)(=O)CCS | 4.96 | – |
| O=C(O)[C@@H]1CCC[C@H]1C(=O)CCS | 5.62 | – |
| O=C(CCS)[C@H]1CCCC[C@H]1C(=O)O | 5.85 | – |
| O=C(O)[C@@H]1CCN1C(=O)CCS | 5.77 | – |
